One test relates to IL-1β release. As to the kind of experiment: IL-1β release. Particulars: at early times after PFM037 treatment.
In test [1] the test system is B16F1 melanoma expressing OVA. As to the kind of experiment: Antitumor activity of expanded OT-I T cells in mice bearing B16F1 melanoma expressing OVA. In kind it is in vivo. Particulars: 7-day established tumors; vs OT-I expanded with IL-2 or IL-7/IL15 without PFM037. The procedure: To evaluate whether PFM037 induces functional and phenotypic changes of in vitro activated OT-T cells, OT-I T cells were activated in the presence of anti-CD3/CD28 coated beads and IL-2. Forty-eight hours later the cells were differentiated and expanded by IL-7/IL15 (5ng/ml both cytokines) with or without PFM037. Ten, 12 and 15 days later, FACS analysis was performed to evaluate their differentiation status. […] T cells expanded by IL7 and II,15 in the presence of PFM037 also expressed at higher levels the sternness markers Sca1, Tcf1 and CXCR3. […] First, OT-I T cells expanded with IL-2 (effectors) or IL-7/ILIS with or without PFM037 (memory T cells) were injected in mice bearing 7-day established B16F1 melanoma expressing OVA. […] Then, mice bearing MC-38-OVA-liver metastases were treated with vehicle, or OT-I T cells expanded with IL-2 (effectors), or IL-7/IL15 with or without PFM037. Tumor-bearing mice injected with vehicle were all dead 40 days after tumor injection. Twenty percent of tumor-bearing mice treated with OT-I T cells expanded with IL-2 were alive at 60 days, whereas 50% and 80% of tumor-bearing mice treated with IL-7/IL15 with or without PFM037, respectively, were alive at 60 days (Fig. 20). […]

A further test deals with human T cells. As to the kind of experiment: In vitro expansion of activated human T cells by IL-7/IL15. In kind it is cell-based. Particulars: human T cells expanded by IL-7/IL15 with PFM037 (5 and 10 µM).

Take `CC(C)CC[C@H](O)[C@@H](C)[C@H]1CC[C@H]2[C@@H]3CC=C4C[C@@H](OS(=O)(=O)[O-])CC[C@]4(C)[C@H]3CC[C@]12C.[Na+]` [PFM037, 22(S)-Hydroxycholesterol-3-sulfate sodium salt]: the IL-1β release result in the test on IL-1β release is reported as “no difference”. Further, the “tumor growth control by OT-I T cells expanded with PFM037” value in test [1] is given as “significantly better”. The “markers associated to memory/stem cell memory T cells” value in the test with human T cells is on record as “higher levels”.

(Values after patent EP4417616A1, “LXR ANTAGONISTS” (Ospedale San Raffaele S.r.l., priority 2023, dated 2024).)
